For 22 compounds, IC50 results are on record in patent US7709482B2, “Polycyclic heteroaryl substituted triazoles useful as Axl inhibitors” (Rigel Pharmaceuticals, Inc., priority 2006, dated 2010).

Where two headings read alike, the source gives them in different places.

The assay addresses T1, Axl (Homo sapiens, UniProt P30530).
T1 construct: endogenous in cells; host or cells: HeLa cells
T1 sequence (P30530 26-894): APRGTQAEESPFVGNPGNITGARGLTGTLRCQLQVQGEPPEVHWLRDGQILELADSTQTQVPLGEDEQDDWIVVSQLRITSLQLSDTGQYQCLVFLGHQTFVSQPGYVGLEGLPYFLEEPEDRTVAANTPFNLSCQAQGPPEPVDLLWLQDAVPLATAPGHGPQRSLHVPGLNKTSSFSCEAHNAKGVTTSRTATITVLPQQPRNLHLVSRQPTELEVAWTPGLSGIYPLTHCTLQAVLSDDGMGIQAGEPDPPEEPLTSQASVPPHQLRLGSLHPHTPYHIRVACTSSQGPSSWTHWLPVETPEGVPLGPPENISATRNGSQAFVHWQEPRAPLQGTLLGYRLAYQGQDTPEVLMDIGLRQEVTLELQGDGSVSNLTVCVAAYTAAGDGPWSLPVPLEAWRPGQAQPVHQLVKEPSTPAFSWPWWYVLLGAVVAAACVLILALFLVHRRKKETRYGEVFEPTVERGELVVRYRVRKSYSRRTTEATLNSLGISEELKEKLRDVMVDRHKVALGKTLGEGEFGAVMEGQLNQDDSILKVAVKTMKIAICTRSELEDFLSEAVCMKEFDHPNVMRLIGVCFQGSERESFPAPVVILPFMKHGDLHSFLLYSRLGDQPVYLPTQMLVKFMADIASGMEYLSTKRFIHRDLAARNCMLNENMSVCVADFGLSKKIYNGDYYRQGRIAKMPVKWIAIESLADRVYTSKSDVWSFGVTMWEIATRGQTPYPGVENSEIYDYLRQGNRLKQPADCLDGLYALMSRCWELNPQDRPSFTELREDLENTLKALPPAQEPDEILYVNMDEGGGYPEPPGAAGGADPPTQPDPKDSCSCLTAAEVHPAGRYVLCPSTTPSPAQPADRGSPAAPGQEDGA
Description: Phospho-Akt In-Cell Western Assay (inhibition of Axl activity after Axl-antibody cross-linking). The format is cell-based. The conditions noted are these: read-out: IC50. In short, it runs like this: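 Phospho-Akt was detected in formaldehyde-fixed cells by in-cell immunostaining with HRP chemiluminescence. Before fixation, HeLa cells kept 24 h in low-serum medium containing 500 ng/mL Axl/Fc received compound for 1 h at 37 °C, followed by 5-min Axl activation through antibody clustering.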

[1] abbreviates: Hela cells, phospho-Akt chemiluminescence normalized to relative cell number, compounds of formula (Ia), Table 1.
The mark [2] stands for this setting: inhibition of Axl activity, Table 1, compounds of formula (Ia).

Broadly, the IC50 is the concentration needed to halve the response being measured. Regarding `CN1CCN(c2ccc(Nc3nc(N)n(-c4cc5c(nn4)-c4ccccc4CCC5)n3)cn2)CC1` [Compound 27, 1-(6,7-dihydro-5H-benzo[6,7]cyclohepta[1,2-c]pyridazin-3-yl)-N^3-(6-(4-methylpiperazin-1-yl)pyridin-3-yl)-1H-1,2,4-triazole-3,5-diamine], the IC50 under setting [1] was less than 1000 nM.
With `Nc1nc(Nc2ccc(OCCN3CCCC3)c(F)c2)nn1-c1cc2c(nn1)-c1cc(F)ccc1CCC2` [Compound 54, 1-(6,7-dihydro-5H-10-fluorobenzo[6,7]cyclo-hepta[1,2-c]pyridazin-3-yl)-N^3-(3-fluoro-4-(2-(pyrrolidin-1-yl)ethoxy)phenyl)-1H-1,2,4-triazole-3,5-diamine], the IC50 under setting [1] was less than 1000 nM.
With `Nc1nc(Nc2ccc(OCCN3CCCC3)cc2)nn1C1=Nc2ccccc2Sc2ccccc21` [Compound 49, 1-((Z)-dibenzo[b,f][1,4]thiazepin-11-yl)-N^3-(4-(2-(pyrrolidin-1-yl)ethoxy)phenyl)-1H-1,2,4-triazole-3,5-diamine], under setting [1], the IC50 was in the range of 1000 to 10000 nM.
The same measure, in the same setting: to `CN1CCN(C2CCN(c3ccc(Nc4nc(N)n(-c5cc6c(nn5)-c5ccccc5CCC6)n4)cn3)CC2)CC1` [Compound 30, 1-(6,7-dihydro-5H-benzo[6,7]cyclohepta[1,2-c]pyridazin-3-yl)-N^3-(6-(4-(4-methylpiperazin-1-yl)piperidin-1-yl)pyridine-3-yl)-1H-1,2,4-triazole-3,5-diamine] belongs less than 1000 nM.
On to `Nc1nc(Nc2ccc(N3CCC(N4CCCC4)CC3)cc2)nn1-c1cc2c(nn1)-c1ccccc1SCC2` [Compound 120, 1-(6,7-dihydro-5H-benzo[2,3]thiepino[4,5-c]pyridazin-3-yl)-N^3-(4-(4-pyrrolidin-1-ylpiperidinyl)phenyl)-1H-1,2,4-triazole-3,5-diamine], for which the IC50 under setting [1] is less than 1000 nM.
Consider `Nc1cccc(-c2ccc(Nc3nc(N)n(-c4cc5c(nn4)-c4ccccc4CCC5)n3)cn2)c1` [Compound 95, 1-(6,7-dihydro-5H-benzo[6,7]cyclohepta[1,2-c]pyridazin-3-yl)-N^3-(6-(3-aminophenyl)pyridine-3-yl)-1H-1,2,4-triazole-3,5-diamine], for which the IC50 under setting [1] is greater than 20000 nM.
Regarding `CN1CCN(C2CCN(C/C=C/c3ccc(Nc4nc(N)n(-c5cc6c(nn5)-c5ccccc5CCC6)n4)cn3)CC2)CC1` [Compound 135, 1-(6,7-dihydro-5H-benzo[6,7]cyclohepta[1,2-c]pyridazin-3-yl)-N^3-(6-(3-(4-(N-methylpiperazin-4-yl)piperidin-1-yl)-(E)-propenyl)pyridin-3-yl)-1H-1,2,4-triazole-3,5-diamine], the half-inhibitory concentration (IC50) under setting [2] was less than 1000 nM.
`Nc1nc(Nc2ccc3c(c2)CCC(NC2CCCCC2)CC3)nn1-c1cc2c(nn1)-c1ccccc1CCC2` (stereo not shown) [Compound 224, 1-(6,7-dihydro-5H-benzo[6,7]cyclohepta[1,2-c]pyridazin-3-yl)-N^3-(7-cyclohexylamino-6,7,8,9-tetrahydro-5H-benzo[7]annulene-2-yl)-1H-1,2,4-triazole-3,5-diamine]: the IC50 under setting [2] was less than 1000 nM.
`Nc1nc(Nc2ccc(N3CC4CN(C5CCCC5)CC4C3)c(F)c2)nn1-c1cc2c(nn1)-c1ccccc1CCC2` (stereo not shown) [Compound 75, 1-(6,7-dihydro-5H-benzo[6,7]cyclohepta[1,2-c]pyridazin-3-yl)-N^3-(3-fluoro-4-(5-cyclopentyloctahydro-pyrrolo[3,4-c]pyrrolyl)phenyl)-1H-1,2,4-triazole-3,5-diamine]: the half-inhibitory concentration (IC50) under setting [1] was less than 1000 nM.
Regarding `Nc1nc(Nc2ccc(N3CCC(N4CCCC4)CC3)cc2)nn1-c1cc2c(nn1)-c1ccccc1CCC2` [Compound 101, 1-(6,7-dihydro-5H-benzo[6,7]cyclohepta[1,2-c]pyridazin-3-yl)-N^3-(4-(4-pyrrolidin-1-ylpiperidinyl)phenyl)-1H-1,2,4-triazole-3,5-diamine], the IC50 under setting [1] is less than 1000 nM.
Turning to `Nc1nc(Nc2ccc(N3CCC(N4CCCC4)CC3)c(F)c2)nn1-c1cc2c(nn1)-c1ccccc1OC21CCCC1` [Compound 176, 1-(spiro[chromeno[4,3-c]pyridazine-5,1′-cyclopentane]-3-yl)-N^3-(3-fluoro-4-(4-(pyrrolidin-1-yl)piperidin-1-yl)phenyl)-1H-1,2,4-triazole-3,5-diamine], the IC50 under setting [2] is 1000 to 10000 nM.
For `Nc1nc(Nc2ccc(N3CCC(N4CCCC4)CC3)c(F)c2)nn1-c1cc2c(nn1)-c1cc(F)ccc1CCC2` [Compound 53, 1-(6,7-dihydro-5H-10-fluorobenzo[6,7]cyclo-hepta[1,2-c]pyridazin-3-yl)-N^3-(3-fluoro-4-(4-(pyrrolidin-1-yl)piperidin-1-yl)phenyl)-1H-1,2,4-triazole-3,5-diamine], the IC50 under setting [1] was less than 1000 nM.
Still for that read-out and setting: to `Nc1nc(Nc2ccc(OCCN3CCCC3)cc2)nn1-c1ncnc2c1CCCc1ccccc1-2` [Compound 37, 1-(6,7-dihydro-5H-benzo[6,7]cyclohepta[1,2-d]pyrimidin-4-yl)-N^3-(4-(2-(pyrrolidin-1-yl)ethoxy)phenyl)-1H-1,2,4-triazole-3,5-diamine] belongs less than 1000 nM.
Regarding `Nc1nc(Nc2cnc(N3CCC(N4CCCC4)CC3)nc2)nn1-c1cc2c(nn1)-c1ccccc1CCC2` [Compound 147, 1-(6,7-dihydro-5H-benzo[6,7]cyclohepta[1,2-c]pyridazin-3-yl)-N^3-(2-(4-pyrrolidin-1-ylpiperidin-1-yl)pyrimidin-5-yl)-1H-1,2,4-triazole-3,5-diamine], under setting [2], the half-maximal inhibitory concentration (IC50) is less than 1000 nM.
As to `Nc1nc(Nc2ccc(C(=O)N3CCN(C4CCCC4)CC3)cc2)nn1-c1cc2c(nn1)-c1ccccc1CCC2` [Compound 10, 1-(6,7-dihydro-5H-benzo[6,7]cyclohepta[1,2-c]pyridazin-3-yl)-N^3-(4-(4-(cyclopentyl)piperazin-1-ylcarbonyl)phenyl)-1H-1,2,4-triazole-3,5-diamine], the IC50 under setting [1] was in the range of 1000 to 10000 nM.
Take `Nc1nc(Nc2ccc3c(c2)CCC(N2CCC(N4CCCC4)CC2)CC3)nn1-c1cc2c(nn1)-c1ccccc1CCC2` (stereo not shown) [Compound 232, 1-(6,7-dihydro-5H-benzo[6,7]cyclohepta[1,2-c]pyridazin-3-yl)-N^3-(7-(4-pyrrolidin-1-ylpiperidin-1-yl)-6,7,8,9-tetrahydro-5H-benzo[7]annulene-2-yl)-1H-1,2,4-triazole-3,5-diamine]: under setting [2], the IC50 is less than 1000 nM.
On the same count and under the same terms, with `C[C@H]1CCCN1C1CCc2ccc(Nc3nc(N)n(-c4cc5c(nn4)-c4ccccc4CCC5)n3)cc2CC1` (stereo partly drawn) [Compound 218, 1-(6,7-dihydro-5H-benzo[6,7]cyclohepta[1,2-c]pyridazin-3-yl)-N^3-(7-(2-(S)-methylpyrrolidin-1-yl)-6,7,8,9-tetrahydro-5H-benzo[7]annulene-2-yl)-1H-1,2,4-triazole-3,5-diamine] the figure was less than 1000 nM.
Take `Nc1nc(Nc2ccc(CN3CCC(N4CCCC4)CC3)cc2)nn1-c1cc2c(nn1)-c1ccccc1CCC2` [Compound 103, 1-(6,7-dihydro-5H-benzo[6,7]cyclohepta[1,2-c]pyridazin-3-yl)-N^3-(4-((4-pyrrolidin-1-ylpiperidinyl)methyl)phenyl)-1H-1,2,4-triazole-3,5-diamine]: the IC50 under setting [1] was less than 1000 nM.
Regarding `CN(C1CCCC1)C1CCN(c2ccc(Nc3nc(N)n(-c4cc5c(nn4)-c4ccccc4CCC5)n3)cc2F)CC1` [Compound 82, 1-(6,7-dihydro-5H-benzo[6,7]cyclohepta[1,2-c]pyridazin-3-yl)-N^3-(3-fluoro-4-(4-(N-methyl-cyclopentylamino)-piperidinyl)phenyl)-1H-1,2,4-triazole-3,5-diamine], the IC50 under setting [1] was less than 1000 nM.
For the compound `Nc1nc(Nc2ccc(N3CCC(N4CCCC4)CC3)cc2)nn1-c1cc2c(nn1)-c1ccccc1OCC2` [Compound 116, 1-(6,7-dihydro-5H-benzo[2,3]oxepino[4,5-c]pyridazin-3-yl)-N^3-(4-(4-pyrrolidin-1-ylpiperidinyl)phenyl)-1H-1,2,4-triazole-3,5-diamine], the 50% inhibitory concentration (IC50) under setting [1] fell in the range of 1000 to 10000 nM.
As for `CN1CCCC(Oc2ccc(Nc3nc(N)n(-c4cc5c(nn4)-c4ccccc4CCC5)n3)cc2)C1` (stereo not shown) [Compound 210, 1-(6,7-dihydro-5H-benzo[6,7]cyclohepta[1,2-c]pyridazin-3-yl)-N^3-(4-(1-methylpiperidin-3-yl-oxy)phenyl)-1H-1,2,4-triazole-3,5-diamine], under setting [2], the IC50 was less than 1000 nM.
Same read-out and setting: with `Nc1nc(Nc2ccc(/C=C/CN3CCC(N4CCCCC4)CC3)nc2)nn1-c1cc2c(nn1)-c1ccccc1CCC2` [Compound 145, 1-(6,7-dihydro-5H-benzo[6,7]cyclohepta[1,2-c]pyridazin-3-yl)-N^3-(6-(3-(4-(piperidin-1-yl)piperidin-1-yl)-(E)-propenyl)pyridin-3-yl)-1H-1,2,4-triazole-3,5-diamine] the figure was less than 1000 nM.
